Source: US6475502B1, “Kits containing cyanoacrylate compositions comprising an antimicrobial agent” (Flowers Park Ltd., priority 1997, dated 2002)
Where a name gives a salt, the structure may show the parent alone. Read-outs that look alike come from different tables or passages of the source.

Columns and labels:
[1] = Solubility or suspendability of the antimicrobial agent in the n-butyl cyanoacrylate composition
[2] = Premature polymerization (gel formation) of the cyanoacrylate composition after mixing with the antimicrobial agent; type: physicochemical; details: for Period over which the composition polymerized after mixing: 5 weight percent agent based on total weight of composition; for Compatibility with the cyanoacrylate composition: overall conclusion of Example 1, for tetracycline hydrochloride and hexachlorophene when mixed immediately prior to use

SMILES | Soluble [1] | Soluble ([1]; in monomeric n-butyl cyanoacrylate with 100 ppm sulfur dioxide and 20 weight percent dioctyl phthalate, agent conc. per column Conc. (~20% iodine, 10% PVP-I2, 5% others)) | Period over which the composition polymerized after mixing [2] [h] | Compatibility with the cyanoacrylate composition [2]
CC[C@H]1OC(=O)[C@H](C)[C@@H](O[C@H]2C[C@@](C)(OC)[C@@H](O)[C@H](C)O2)[C@H](C)[C@@H](O[C@@H]2O[C@H](C)C[C@H](N(C)C)[C@H]2O)[C@](C)(O)C[C@@H](C)C(=O)[C@H](C)[C@@H](O)[C@]1(C)O [Erythromycin, erythromycin] | no, gelled^1 |  |  | 
O=C([O-])c1ccccc1-c1c2cc(Br)c(=O)cc-2oc2[c]([Hg+])c([O-])c(Br)cc12.[Na+].[Na+].[OH-] [Merbromin, merbromin] |  | no, gelled^1 |  | 
II [elemental iodine (I2), elemental iodine] | partially |  |  | 
Oc1c(Cl)cc(Cl)c(Cl)c1Cc1c(O)c(Cl)cc(Cl)c1Cl [hexachlorophene] |  |  | ~48 | compatible
CN(C)[C@@H]1C(O)=C(C(N)=O)C(=O)[C@@]2(O)C(O)=C3C(=O)c4c(O)cccc4[C@@](C)(O)[C@H]3C[C@@H]12 [tetracycline hydrochloride] |  |  | ~48 | compatible
